Measured values as given in the NIST ThermoML archive (doi:10.1021/je700546r).
Values joined by “and” are separate entries in the source; they are usually repeats but may differ in a detail not shown here. Identical values can stand only once.

Test: molar heat capacity at saturation pressure
Settings: Crystal 3, Small (less than 1 g) adiabatic calorimetry

ON=C1CCCCC1 [cyclohexanone oxime]
Settings | molar heat capacity
4.9 K | 0.339 J/K/mol
5.136 K | 0.3967 J/K/mol
5.378 K | 0.4649 J/K/mol
5.624 K | 0.5419 J/K/mol
5.878 K | 0.6278 J/K/mol
6.165 K | 0.7333 J/K/mol
6.485 K | 0.8621 J/K/mol
6.812 K | 1.006 J/K/mol
7.147 K | 1.167 J/K/mol
7.488 K | 1.338 J/K/mol
7.836 K | 1.53 J/K/mol
8.187 K | 1.735 J/K/mol
8.542 K | 1.956 J/K/mol
8.902 K | 2.19 J/K/mol
9.268 K | 2.438 J/K/mol
9.636 K | 2.708 J/K/mol
10 K | 2.981 J/K/mol
10.48 K | 3.361 J/K/mol
11.06 K | 3.83 J/K/mol
11.64 K | 4.325 J/K/mol
12.23 K | 4.854 J/K/mol
12.83 K | 5.408 J/K/mol
13.43 K | 5.992 J/K/mol
14.03 K | 6.572 J/K/mol
14.64 K | 7.153 J/K/mol
15.26 K | 7.796 J/K/mol
15.98 K | 8.601 J/K/mol
16.81 K | 9.497 J/K/mol
17.65 K | 10.37 J/K/mol
18.49 K | 11.28 J/K/mol
19.34 K | 12.18 J/K/mol
20.19 K | 13.08 J/K/mol
21.32 K | 14.35 J/K/mol
22.74 K | 15.89 J/K/mol
24.16 K | 17.46 J/K/mol
25.59 K | 19 J/K/mol
27.02 K | 20.5 J/K/mol
28.49 K | 22 J/K/mol
30.12 K | 23.63 J/K/mol
31.73 K | 25.22 J/K/mol
33.5 K | 26.88 J/K/mol
35.28 K | 28.48 J/K/mol
37.06 K | 30.01 J/K/mol
38.84 K | 31.47 J/K/mol
40.63 K | 32.89 J/K/mol
42.51 K | 34.38 J/K/mol
44.49 K | 35.9 J/K/mol
46.48 K | 37.34 J/K/mol
48.47 K | 38.76 J/K/mol
50.46 K | 40.11 J/K/mol
52.45 K | 41.42 J/K/mol
54.45 K | 42.64 J/K/mol
56.45 K | 43.84 J/K/mol
58.46 K | 45.02 J/K/mol
60.47 K | 46.16 J/K/mol
62.48 K | 47.28 J/K/mol
64.5 K | 48.37 J/K/mol
66.51 K | 49.44 J/K/mol
68.52 K | 50.51 J/K/mol
70.54 K | 51.55 J/K/mol
72.56 K | 52.59 J/K/mol
74.59 K | 53.59 J/K/mol
76.61 K | 54.6 J/K/mol
78.65 K | 55.6 J/K/mol
79.94 K | 56.26 J/K/mol
80.68 K | 56.58 J/K/mol
81.67 K | 57.04 J/K/mol
82.2 K | 57.24 J/K/mol
82.71 K | 57.54 J/K/mol
83.39 K | 57.84 J/K/mol
84.24 K | 58.2 J/K/mol
84.75 K | 58.47 J/K/mol
85.1 K | 58.59 J/K/mol
86.15 K | 59.05 J/K/mol
86.83 K | 59.4 J/K/mol
88.07 K | 59.96 J/K/mol
88.55 K | 60.2 J/K/mol
90 K | 60.85 J/K/mol
90.28 K | 61.01 J/K/mol
91.95 K | 61.75 J/K/mol
92.01 K | 61.8 J/K/mol
93.75 K | 62.62 J/K/mol
93.89 K | 62.67 J/K/mol
95.49 K | 63.42 J/K/mol
95.85 K | 63.56 J/K/mol
97.23 K | 64.21 J/K/mol
97.81 K | 64.45 J/K/mol
98.97 K | 65.03 J/K/mol
99.77 K | 65.37 J/K/mol
100.72 K | 65.83 J/K/mol
101.74 K | 66.25 J/K/mol
102.52 K | 66.6 J/K/mol
103.72 K | 67.14 J/K/mol
104.37 K | 67.44 J/K/mol
105.7 K | 68.04 J/K/mol
106.23 K | 68.29 J/K/mol
107.69 K | 68.92 J/K/mol
108.09 K | 69.08 J/K/mol
109.68 K | 69.81 J/K/mol
109.95 K | 69.92 J/K/mol
111.68 K | 70.69 J/K/mol
111.81 K | 70.76 J/K/mol
113.68 K | 71.57 J/K/mol and 71.56 J/K/mol
115.55 K | 72.37 J/K/mol
115.69 K | 72.45 J/K/mol
117.41 K | 73.2 J/K/mol
117.7 K | 73.35 J/K/mol
119.29 K | 74.03 J/K/mol
119.71 K | 74.22 J/K/mol
121.16 K | 74.85 J/K/mol
121.72 K | 75.08 J/K/mol
